According to patent US12171745B2, “Compositions and methods for treating non-hemorrhagic closed head injury” (Boulder BioScience LLC, priority 2022, dated 2024):
Each block holds one compound with its values, some of them ahead of it.

What was measured:
[1] = Eur. J. Pharmacol. 2022; 919:174812; cited from earlier work
[2] = tested on: Moderate-to-Severe TBI in the Sprague Dawley Rat; assay: Histology analysis (H&E, NeuN) after lateral fluid percussion TBI; type: in vivo; conditions: 10 days post FPI
Excerpt: (§1) Evaluation of 3,3′-diindolylmethane (DIM) in a clinically relevant animal model of Traumatic Brain Injury (TBI) utilized the Lateral Fluid Percussion (LFP) brain injury method. LFP is the most established and frequently used method for evaluating mixed focal and diffuse brain injury (Thompson H J, Lifshitz J, Marklund N, Grady M S, Graham D I, Hovda D A, McIntosh T K. Lateral fluid percussion brain injury: a 15-year review and evaluation. J Neurotrauma. 2005 January; 22(1):42-75.). Using rats, the parasagittal LFP model recreates the physiological, pathological, and neurobehavioral sequela of TBI in humans. […] Over the days following surgery, rats were assessed for sensorimotor deficits, associative learning and memory, cortical and hippocampal edema, Extracellular Vesicle (EV) levels, and histopathological damage. […]
(§2) Approximately 12-24 h after the preparation surgery, the rats were anesthetized with 3% isoflurane, 70% nitrous oxide and 30% oxygen, intubated, connected to a respirator, and ventilated to be maintained on 1-3% isoflurane in a mixture of 70% nitrous oxide and oxygen. […] Following administration of pancuronium, TBI DIM Premix and Vehicle group rats inspired oxygen was reduced to 21% to maintain blood pO2 levels at approximately 85-95 mmHg. pCO2 levels were monitored to remain at physiological levels of 34 to 46 mmHg. […]

[3] = tested on: Moderate-to-Severe TBI in the Sprague Dawley Rat; assay: Extracellular Vesicle (EV) isolation and measurement after lateral fluid percussion TBI; type: in vivo; conditions: plasma EVs 1 day post-surgery, NTA
Excerpt: as §1, §2

[4] = Solubility of aripiprazole in the SMEDDS DIM formulation
[5] = Clin. Cancer Res. 10:5233-5241 (2004); cited from earlier work

Structure (SMILES): c1ccc2c(Cc3c[nH]c4ccccc34)c[nH]c2c1 [DIM, 3,3′-diindolylmethane]
Anti-thrombotic activity [1]: anti-thrombotic activity | Bleeding time [1]: prolong bleeding time | Animals with cortical contusion absent [2]: 50% | EV concentration (numbers) ([3]; versus TBI Vehicle, p=0.0415): prevented the significant increase in EV numbers | EV particle size ([3]; versus untreated TBI animals, p=0.0117): maintenance of a larger EV particle size

Solubility of the aripiprazole in the SMEDDS DIM formulation [4]: approximately 1.5% | Dissolution of aripiprazole in SMEDDS DIM, observation ([4]; 1.2% (10 mg aripiprazole, 0.81 grams SMEDDS DIM), stored overnight, warmed to about 35 degrees C.): all had dissolved | Aripiprazole still in suspension ([4]; 2.0% (10 mg aripiprazole, 0.49 grams SMEDDS DIM)): less than 2 mg | Dissolution of aripiprazole in SMEDDS DIM, observation ([4]; 2.0% (10 mg aripiprazole, 0.49 grams SMEDDS DIM), stored overnight, warmed to about 35 degrees C.): had not quite dissolved | Dissolution of aripiprazole in SMEDDS DIM, observation ([4]; 5.0% (25 mg aripiprazole, 0.475 grams SMEDDS DIM)): white solids clearly present | Dissolution of aripiprazole in SMEDDS DIM, observation ([4]; 10% (50 mg aripiprazole, 0.45 grams SMEDDS DIM)): white solids clearly present | Dose of aripiprazole that can be dissolved ([4]; in standard dose of 100 mg DIM contained in 825 mg of the SMEDDS DIM): up to 10 mg
Structure (SMILES): O=C1CCc2ccc(OCCCCN3CCN(c4cccc(Cl)c4Cl)CC3)cc2N1 [aripiprazole]

Structure (SMILES): OCc1c[nH]c2ccccc12 [indole-3-carbinol]
Conversion in vivo [5]: converts to DIM and LTR in vivo
